# Columns and labels:
# [1] = Formulation stability of PPC injectable preparations: property, transparency, particle size, pH; details: for bile acid concentration at which stable injectable preparations can be made: based on PPC 5.0%; for bile acid/PPC molar ratio below which a substantially stable formulation did not occur: PPC 5.0%
# sole of the rat paws = assay: Measurement of skin lesion (erythema) on rat paw; assay type: in vivo, Sprague Dawley rats; details: for skin lesion (erythema) in words: 2 hours after administration;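 for grade of skin lesion (erythema), 1 hour after administration: grades − to ++++ mean no to extremely severe erythema versus before injection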;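 for grade of skin lesion (erythema), 2 hours after administration: grades − to ++++ mean no to extremely severe erythema versus before injection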;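 for grade of skin lesion (erythema), Immediately after administration: grades − to ++++ mean no to extremely severe erythema versus before injection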
# Procedure: (§1) To evaluate the degree of edema, each test compositions described above were injected into the paw of the rats. Specifically, male Sprague Dawley rats (6 weeks old) were purchased and used after one week of adaptation. The rats (body weight: 170˜200 g) were randomly selected and the thickness of the rat paw were measured with a caliper before the administration of the test compositions. In order to observe the edema, 0.1 ml of PBS and the various test compositions were administered to the paws of the rats. Measurements of the […] were performed by a caliper immediately before the injection, immediately after the injection, and 1 or 2 hours after the injection. In addition, when the thickness was measured, the skin lesion of the injection site was observed by photographing the sole of the paw (using a 4×4 cm scale).
# The grades of skin lesion were evaluated as 0 to 4 grades.
# paw of the rats = assay: Rat paw edema; assay type: in vivo, Sprague Dawley rats; details: for degree of edema in words: 2 hours after administration, rat paw; for degree of edema, 1 hour after administration / degree of edema, 2 hours after administration / degree of edema, Immediately after administration: 0.1 ml into rat paw
# Procedure: as §1
# The degree of edema was evaluated as 0 to 4 grades.
# [2] = test system: tissues of the injected area (rat paw); assay: H&E staining histological test (inflammation) of injected rat paw; assay type: in vivo, Sprague Dawley rats; details: for Inflammation (H&E), BA % (w/v) 1.0: bile acid single composition 1.0% (w/v); for Inflammation (H&E), BA % (w/v) 1.0 / Inflammation (H&E), BA % (w/v) 2.5 / Inflammation (H&E), BA % (w/v) 5.0: injected rat paw; for Inflammation (H&E), BA % (w/v) 2.5: bile acid single composition 2.5% (w/v); for Inflammation (H&E), BA % (w/v) 5.0: bile acid single composition 5.0% (w/v); for degree of inflammation (H&E) in words: rats sacrificed at 3 hours, injected paw
# Procedure: The tissues of the injected area were dissected, fixed with 10% formalin, and then the specimen was prepared and images were captured using an optical microscope. The degree of inflammation was evaluated as follows.
# [3] = bile acid single composition 1.0% (w/v)
# [4] = bile acid single composition 2.5% (w/v)
# [5] = bile acid single composition 5.0% (w/v)
# [6] = bile acid single composition 7.5% (w/v)
Compound,bile acid concentration at which stable injectable preparations can be made [1] [%],"grade of skin lesion (erythema), 1 hour after administration (sole of the rat paws; [3])","grade of skin lesion (erythema), 2 hours after administration (sole of the rat paws; [3])","grade of skin lesion (erythema), Immediately after administration (sole of the rat paws; [3])","grade of skin lesion (erythema), 1 hour after administration (sole of the rat paws; [4])","grade of skin lesion (erythema), 2 hours after administration (sole of the rat paws; [4])","grade of skin lesion (erythema), Immediately after administration (sole of the rat paws; [4])","grade of skin lesion (erythema), 1 hour after administration (sole of the rat paws; [5])","grade of skin lesion (erythema), 2 hours after administration (sole of the rat paws; [5])","grade of skin lesion (erythema), Immediately after administration (sole of the rat paws; [5])","grade of skin lesion (erythema), 1 hour after administration (sole of the rat paws; [6])","grade of skin lesion (erythema), 2 hours after administration (sole of the rat paws; [6])","grade of skin lesion (erythema), Immediately after administration (sole of the rat paws; [6])","degree of edema, 1 hour after administration (paw of the rats; [3])","degree of edema, 2 hours after administration (paw of the rats; [3])","degree of edema, Immediately after administration (paw of the rats; [3])","degree of edema, 1 hour after administration (paw of the rats; [4])","degree of edema, 2 hours after administration (paw of the rats; [4])","Inflammation (H&E), BA % (w/v) 1.0 [2]","Inflammation (H&E), BA % (w/v) 2.5 [2]",also measured
"C[C@H](CCC(=O)O)[C@H]1CC[C@H]2[C@@H]3[C@H](O)C[C@@H]4C[C@H](O)CC[C@]4(C)[C@H]3C[C@H](O)[C@]12C [CA, (4R)-4-[(3R,5S,7R,8R,9S,10S,12S,13R,14S,17R)-3,7,12-trihydroxy-10,13-dimethyl-2,3,4,5,6,7,8,9,11,12,14,15,16,17-tetradecahydro-1H-cyclopenta[a]phenanthren-17-yl]pentanoic acid]",≥ 2.2,,,,,,,,,,,,,,,,,,,,
C[C@H](CCC(=O)O)[C@H]1CC[C@H]2[C@@H]3[C@H](O)C[C@@H]4C[C@H](O)CC[C@]4(C)[C@H]3CC[C@]12C [CDCA],≥ 2.2,++,++,+,++++,++++,++,++++,++++,++,++++,++++,++,"+++ (severe edema [+++, (the degree of swelling was 40-60% compared to before the injection)])","+++ (severe edema [+++, (the degree of swelling was 40-60% compared to before the injection)])","++ (moderate edema [++, (the degree of swelling was 20-40% compared to before the injection)])","+++ (severe edema [+++, (the degree of swelling was 40-60% compared to before the injection)])","++++ (extremely severe edema [++++, (the degree of swelling was 60% or more compared to before the injection)])",++,+++,"skin lesion (erythema) in words (sole of the rat paws; listed as CDCA 1.0%): Moderate; skin lesion (erythema) in words (sole of the rat paws; listed as CDCA 2.5%): “severe” and “extremely severe”; degree of edema in words (paw of the rats; listed as CDCA 1.0%): Moderate; degree of edema in words (paw of the rats; listed as CDCA 2.5%): “severe” and “extremely severe”; degree of edema, Immediately after administration (paw of the rats; [4]): ++ (moderate edema [++, (the degree of swelling was 20-40% compared to before the injection)]); degree of edema, 1 hour after administration (paw of the rats; [5]): ++++ (extremely severe edema [++++, (the degree of swelling was 60% or more compared to before the injection)]); degree of edema, 2 hours after administration (paw of the rats; [5]): ++++ (extremely severe edema [++++, (the degree of swelling was 60% or more compared to before the injection)]); degree of edema, Immediately after administration (paw of the rats; [5]): ++ (moderate edema [++, (the degree of swelling was 20-40% compared to before the injection)]); degree of edema, 1 hour after administration (paw of the rats; [6]): ++++ (extremely severe edema [++++, (the degree of swelling was 60% or more compared to before the injection)]); degree of edema, 2 hours after administration (paw of the rats; [6]): ++++ (extremely severe edema [++++, (the degree of swelling was 60% or more compared to before the injection)]); degree of edema, Immediately after administration (paw of the rats; [6]): ++ (moderate edema [++, (the degree of swelling was 20-40% compared to before the injection)]); Inflammation (H&E), BA % (w/v) 5.0 [2]: +++; degree of inflammation (H&E) in words [2]: Moderate; bile acid/PPC molar ratio below which a substantially stable formulation did not occur [1]: less than 0.89"
"C[C@H](CCC(=O)NCC(=O)O)[C@H]1CC[C@H]2[C@@H]3CCC4C[C@H](O)CC[C@]4(C)[C@H]3C[C@H](O)[C@]12C (stereo partly drawn) [GDCA, 2-[[(4R)-4-[(3R,8R,9S,10S,12S,13R,14S,17R)-3,12-dihydroxy-10,13-dimethyl-2,3,4,5,6,7,8,9,11,12,14,15,16,17-tetradecahydro-1H-cyclopenta[a]phenanthren-17-yl]pentanoyl]amino]acetic acid]",≥ 2.4,++,++,++,++++,++++,++,++++,++++,++,++++,++++,++,"+++ (severe edema [+++, (the degree of swelling was 40-60% compared to before the injection)])","++ (moderate edema [++, (the degree of swelling was 20-40% compared to before the injection)])","++ (moderate edema [++, (the degree of swelling was 20-40% compared to before the injection)])","+++ (severe edema [+++, (the degree of swelling was 40-60% compared to before the injection)])","+++ (severe edema [+++, (the degree of swelling was 40-60% compared to before the injection)])",++,+++,"skin lesion (erythema) in words (sole of the rat paws; listed as GDCA 1.0%): Moderate; skin lesion (erythema) in words (sole of the rat paws; listed as GDCA 2.5%): “severe” and “extremely severe”; degree of edema in words (paw of the rats; listed as GDCA 1.0%): moderate; degree of edema in words (paw of the rats; listed as GDCA 2.5%): “severe” and “extremely severe”; degree of edema, Immediately after administration (paw of the rats; [4]): ++ (moderate edema [++, (the degree of swelling was 20-40% compared to before the injection)]); degree of edema, 1 hour after administration (paw of the rats; [5]): ++++ (extremely severe edema [++++, (the degree of swelling was 60% or more compared to before the injection)]); degree of edema, 2 hours after administration (paw of the rats; [5]): ++++ (extremely severe edema [++++, (the degree of swelling was 60% or more compared to before the injection)]); degree of edema, Immediately after administration (paw of the rats; [5]): ++ (moderate edema [++, (the degree of swelling was 20-40% compared to before the injection)]); degree of edema, 1 hour after administration (paw of the rats; [6]): ++++ (extremely severe edema [++++, (the degree of swelling was 60% or more compared to before the injection)]); degree of edema, 2 hours after administration (paw of the rats; [6]): ++++ (extremely severe edema [++++, (the degree of swelling was 60% or more compared to before the injection)]); degree of edema, Immediately after administration (paw of the rats; [6]): ++ (moderate edema [++, (the degree of swelling was 20-40% compared to before the injection)]); degree of inflammation (H&E) in words [2]: Moderate; bile acid/PPC molar ratio below which a substantially stable formulation did not occur [1]: less than 0.87"
"C[C@H](CCC(=O)NCCS(=O)(=O)O)[C@H]1CC[C@H]2[C@@H]3[C@H](O)C[C@@H]4C[C@H](O)CC[C@]4(C)[C@H]3C[C@H](O)[C@]12C [TCA, 2-[[(4R)-4-[(3R,5S,7R,8R,9S,10S,12S,13R,14S,17R)-3,7,12-trihydroxy-10,13-dimethyl-2,3,4,5,6,7,8,9,11,12,14,15,16,17-tetradecahydro-1H-cyclopenta[a]phenanthren-17-yl]pentanoyl]amino]ethanesulfonic acid]",≥ 2.5,,−,,,+,,,+,,,++,,,,,,,+,++,"Inflammation (H&E), BA % (w/v) 5.0 [2]: ++"

# From patent US11298314B2, “Injectable composition for localized fat reduction without pain, edema, and side effects, and method for preparing same” (AMI PHARM CO., LTD., priority 2017, dated 2022)
